Results taken from patent US10202366B2, “Methods of promoting wound healing using CRM1 inhibitors” (Karyopharm Therapeutics Inc., priority 2013, dated 2019).

System: MM1.S cells
Assay: MTT cell proliferation assay
Type: cell-based
Details: Homo sapiens
Description: The MTT cell proliferation assay was used to study the cytotoxic properties of certain compounds. The assay was performed according to the method described by Roche Molecular Biochemicals, with minor modifications. The assay is based on the cleavage of the tetrazolium salt, MTT, in the presence of an electron-coupling reagent. The water-insoluble formazan salt produced must be solubilized in an additional step. Cells grown in a 96-well tissue culture plate were incubated with the MTT solution for approximately 4 hours. After this incubation period, a water-insoluble formazan dye formed. After solubilization, the formazan dye was quantitated using a scanning multi-well spectrophotometer (ELISA reader). […] The cells were seeded at 5,000-10,000 cells in each well of 96-well plate in 100 μL of fresh culture medium and were allowed to attach overnight. The stock solutions of the compounds were diluted in 100 μL cell culture medium to obtain eight concentrations of each test compound, ranging from 1 nM to 30 μM. […] All optical densities were measured at 490 nm using a Vmax Kinetic Microplate Reader (Molecular Devices). In most cases, the assay was performed in duplicate and the results were presented as a mean percent inhibition to the negative control±SE. The following formula was used to calculate the percent of inhibition: Inhibition (%)=(1−(ODo/OD))×100. […]

Structure (SMILES) | IC50 [nM]
CC(C)Oc1cc(-c2ncn(/C=C\C(=O)OCc3cnccn3)n2)cc(C(F)(F)F)c1 [Compound 130, Pyrazin-2-Ylmethyl (Z)-3-(3-(3-Isopropdxy-5-(Trifluoromethyl)Phenyl)-1h-1,2,4-Triazol-1-Yl)Acrylate] | 4
CC(C)Oc1cc(-c2ncn(/C=C\C(=O)OCc3cncnc3)n2)cc(C(F)(F)F)c1 [Compound 129, Pyrimidin-5-Ylmethyl (Z)-3-(3-(3-Isopropoxy-5-(Trifluoromethyl)Phenyl)-1H-1,2,4-Triazol-1-Yl)Acrylate] | 20
